# Earlier results, collected in patent publication US11530415B2, “Genetically engineered Streptomyces capable of thaxtomin production in the absence of thaxtomin-inducing conditions and methods of producing thaxtomin” (University of Florida Research Foundation, Inc., priority 2017, dated 2022).
# System: cellulose biosynthesis
# Conditions: background statement, no method given
structure (smiles),measurement,value
"CN1C(=O)[C@](O)(Cc2cccc(O)c2)N(C)C(=O)[C@@H]1Cc1c[nH]c2cccc([N+](=O)[O-])c12 [Thaxtomin A, thaxtomin A]",potency in inhibiting cellulose biosynthesis,excellent potency (in an nM range)
